What all share (format): biochemical
One assay has as its target T1, human α-synuclein (Homo sapiens, UniProt P37840).
T1 construct: made in house; host or cells: E. coli
The assay is described as follows: In vitro Thioflavin T assay of α-synuclein aggregation. The method, then:
In Vitro Thioflavin T Assay to Determine the Effects of Compounds on α-Synuclein Aggregation.
The ammonium sulfate pellet was washed with an equal volume of 100 mM ammonium acetate in ethanol, pelleted via centrifugation, washed twice with ethanol, dried overnight, resuspended in 10 mM Tris pH 7.4, and passed through a 50 kDa cut-off column. The assay was conducted in 96-well black microplates with a single 2 mm bead in each well, 40 μM ThioflavinT, 1% DMSO, 50 μM α-synuclein, 100 mM sodium chloride, 9.3 mM potassium phosphate pH 7.3, 4.6 mM Tris pH 7.4 (added as the solvent for α-synuclein or independently for controls lacking α-synuclein), and compounds at 1 μM or 50 μM. […] Readings were performed hourly for up to 73 hours. The effect of compounds on α-synuclein aggregation in the assay was determined with data from 40 hours, following the plateau of the fluorescent signal in the untreated (no compound) control wells containing α-synuclein. Fluorescence values for each compound with α-synuclein were first adjusted by subtracting the average fluorescence of the compound in the absence of α-synuclein.

Assay [1] concerns the target T2, α-synuclein seeded by E. coli CsgA (Homo sapiens, UniProt P37840).
T2 construct: made in house; host or cells: E. coli NEB 3016 slyD::kan (CsgA, pET11d); E. coli (α-synuclein)
The assay is described as follows: In vitro Thioflavin T assay of CsgA-seeded α-synuclein aggregation. The method, then: In Vitro Thioflavin T Assay to Determine the Effects of Compounds on CsgA-Seeded α-Synuclein Aggregation.
To induce over-expression of CsgA, 0.5 mM IPTG was added to cultures with an optical density at 600 nm (OD600) of 0.8-1, and induced cells were cultured at 37° C. for 1 hour prior to harvest via centrifugation. […] Buffers with imidazole were freshly prepared prior to the protein purification. Purified CsgA was passed through a 30 kDa molecular weight cut-off filter and through a desalting column. All steps of the CsgA purification in the absence of guanidine hydrochloride were conducted in rapid succession with as little delay as possible. […] The ammonium sulfate pellet was washed with an equal volume of 100 mM ammonium acetate in ethanol, pelleted via centrifugation, washed twice with ethanol, dried overnight, resuspended in 10 mM Tris pH 7.4, and passed through a 50 kDa cut-off column. The assay was conducted in 96-well black microplates with a single glass 2 mm bead per well, 40 μM ThioflavinT, 1% DMSO, 2 μM CsgA, 50 μM α-synuclein, 100 mM sodium chloride, 9.3 mM potassium phosphate pH 7.3, and compounds at 50 μM. […] The effect of compounds on CsgA-seeded α-synuclein aggregation in the assay was determined with data from 40 hours, following the plateau of the fluorescent signal in the untreated (no compound) control wells containing CsgA and α-synuclein. Fluorescence values for each compound with CsgA and α-synuclein were first adjusted by subtracting the average fluorescence of the compound in the absence of CsgA and α-synuclein.

The target in another assay is T3, E. coli CsgA (Escherichia coli, UniProt P28307).
T3 construct: made in house; host or cells: E. coli NEB 3016 slyD::kan, pET11d
The experiment in a line: In vitro ThioflavinT assay of CsgA aggregation. The method, then:
In Vitro ThioflavinT Assay to Determine Effects of Compounds on CsgA Aggregation.
To assess the effects of compounds on aggregation of E. coli CsgA, a cell-free assay was performed using purified CsgA and Thioflavin T. In the assay, histidine-tagged CsgA was over-expressed in E. coli NEB 3016 slyD::kan cells harboring a pET11d vector containing csgA with the sequence for 6 histidine residues added to the C-terminus and without the Sec signal (amino acid 1-22) sequence. To induce over-expression of CsgA, 0.5 mM isopropyl β-D-1-thiogalactopyranoside (“IPTG”) was added to cultures with an optical density at 600 nm (OD600) of 0.8-1, and induced cells were cultured at 37° C. for 1 hour prior to harvest via centrifugation. Cells were lysed under denaturing conditions with 8 M guanidine hydrochloride in 50 mM potassium phosphate buffer pH 7.3, and CsgA was purified via immobilized-metal affinity chromatography by batch purification with Nickel-NTA agarose and a combination of low pressure and gravity flow through a disposable polypropylene column, including washes under low pressure applied manually via application of a syringe plunger to the column with 50 mM potassium phosphate buffer pH 7.3 followed by 12.5 mM imidazole in 50 mM potassium phosphate buffer pH 7.3, and elution by gravity flow with 125 mM imidazole in 50 mM potassium phosphate buffer pH 7.3. Buffers with imidazole were freshly prepared prior to the protein purification. Purified CsgA was passed through a 30 kDa molecular weight cut-off filter and passed through a desalting column. All steps of the CsgA purification in the absence of guanidine hydrochloride were conducted in rapid succession with as little delay as possible. The assay was conducted in 96-well black microplates with 40 μM ThioflavinT, 1% DMSO, CsgA at 20 μM, and compounds at 20 μM. Plates were incubated at 25° C. in a Tecan Nano F200 plate reader with excitation at 438 nm using a 439 nm filter with a bandwidth of 8 nm, and emission at 495 nm with a 490 nm filter with a bandwidth of 10 nm. During the assay, plates were shaken initially for 5 seconds and subsequently for 3 seconds prior to fluorescent readings. Readings were performed every 20 minutes for up to 24 hours. The effect of compounds on CsgA aggregation in the assay was determined with data from 18 hours, following the plateau of the fluorescent signal in the untreated (no compound) control wells containing CsgA. Fluorescence values for each compound with CsgA were first adjusted by subtracting the average fluorescence of the compound in the absence of CsgA. These adjusted values were normalized by dividing them by the average fluorescence in the no-compound (i.e., untreated) control wells containing CsgA […], and the average normalized fluorescence with the compound was expressed as a percentage of the average fluorescence observed in untreated controls.

[2] abbreviates: compounds at 50 μM, 50 μM α-synuclein, ThT fluorescence at 40 hours, read-out: Inhibition of Aggregation αSyn.
[3] abbreviates: compounds at 50 μM, 50 μM α-synuclein, ThT fluorescence at 40 hours, read-out: Inhibition of Aggregation αSyn (compound activity range).
Where [4] appears, read: compounds at 50 μM, 2 μM CsgA, 50 μM α-synuclein, ThT fluorescence at 40 hours, read-out: Inhibition of Aggregation CsgA-seeded αSyn.
Setting [5] is: compounds at 50 μM, 2 μM CsgA, 50 μM α-synuclein, ThT fluorescence at 40 hours, read-out: Inhibition of Aggregation CsgA-seeded αSyn (compound activity range).
[6] abbreviates: read-out: Inhibition of Aggregation CsgA (compound activity range), compounds at 20 μM, CsgA at 20 μM, ThT fluorescence at 18 hours.
[7] abbreviates: read-out: Inhibition of Aggregation CsgA, compounds at 20 μM, CsgA at 20 μM, ThT fluorescence at 18 hours.
The mark [8] stands for this setting: read-out: Inhibition of Aggregation αSyn.
[9] abbreviates: read-out: Inhibition of Aggregation αSyn (compound activity range).

Each structure is given as a SMILES string. Read-outs that look alike come from different tables or passages of the source.

T3 sequence (P28307 23-151): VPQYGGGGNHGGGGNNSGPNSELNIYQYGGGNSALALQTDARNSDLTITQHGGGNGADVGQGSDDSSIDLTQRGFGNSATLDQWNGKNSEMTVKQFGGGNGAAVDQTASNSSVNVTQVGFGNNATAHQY

Usually inhibition stands for the relative decrease from the control value, in per cent. With `COc1ccccc1O` [guaiacol, 2-methoxyphenol], the “Effect on α-synuclein aggregation (in words)” value at human α-synuclein (compounds at 50 μM) is “without notable inhibition”. For the same compound, the inhibition at 50 µM on human α-synuclein (setting [2]) is -2%; on human α-synuclein (setting [3]), -10 to 10%; in assay [1] (setting [4]), 40%; in assay [1] (setting [5]) it was 30 to 60%. Moreover, the “Effect on CsgA-seeded α-synuclein aggregation (in words)” value in assay [1] (compounds at 50 μM) is “demonstrated inhibition”. For the same compound, the “Effect on CsgA aggregation (in words)” value on E. coli CsgA (compounds at 20 μM) is “without notable inhibition”. In addition, the inhibition at 20 µM on E. coli CsgA (setting [6]) is -10 to 10%; at E. coli CsgA (setting [7]), -5%.
On to `C=CCc1ccc(OC)c(OC)c1` [4-allyl-1,2-dimethoxy-benzene, 4-allyl-1,2-dimethoxybenzene], for which the “Effect on α-synuclein aggregation (in words)” value at human α-synuclein (compounds at 50 μM) is on record as “without notable inhibition”. The inhibition at 50 µM on human α-synuclein (setting [8]) is 5%; at human α-synuclein (setting [9]), -10 to 10%; in assay [1] (setting [4]), 36%; in assay [1] (setting [5]) it was 30 to 60%. Further, the “Effect on CsgA-seeded α-synuclein aggregation (in words)” value in assay [1] (compounds at 50 μM) is “demonstrated inhibition”. The “Effect on CsgA aggregation (in words)” value at E. coli CsgA (compounds at 20 μM) is listed as “without notable inhibition”. The inhibition at 20 µM on E. coli CsgA (setting [6]) was below -10%; at E. coli CsgA (setting [7]), -18%.
With `CC(Cc1ccc(O)c(O)c1)C(C)Cc1ccc(O)c(O)c1` (centres unmarked) [NDGA, 4,4′-(2,3-dimethylbutane-1,4-diyl)dibenzene-1,2-diol], the inhibition at 50 µM at human α-synuclein (setting [2]) was 54%; on human α-synuclein (setting [3]) it was 30 to 60%; in assay [1] (setting [4]), 39%. Further, the inhibition at 20 µM is 10 to 30% on E. coli CsgA (setting [6]) and 23% at E. coli CsgA (setting [7]).
In the case of `Cc1ccc(C(C)C)cc1O` [carvacrol, 2-methyl-5-(propan-2-yl)phenol], the inhibition at 50 µM is 2% at human α-synuclein (setting [8]), -10 to 10% on human α-synuclein (setting [9]) and -2% in assay [1] (read-out: Inhibition of Aggregation CsgA-seeded αSyn). The “Inhibition of Aggregation CsgA (compound activity range)” value on E. coli CsgA (compounds at 20 μM, CsgA at 20 μM, ThT fluorescence at 18 hours, 20 µM) is “− ((−) is between −10% to 10% inhibition)”. Further, the inhibition at 20 µM on E. coli CsgA (setting [7]) was -20%.
For the compound `O=C(CCc1ccc(O)cc1)c1c(O)cc(O)cc1O` [phloretin, 3-(4-hydroxyphenyl)-1-(2,4,6-trihydroxyphenyl)propan-1-one], the inhibition at 50 µM was 46% on human α-synuclein (setting [2]), 30 to 60% on human α-synuclein (setting [3]), 21% in assay [1] (setting [4]) and 10 to 30% in assay [1] (setting [5]). The inhibition at 20 µM at E. coli CsgA (setting [6]) was 10 to 30%; on E. coli CsgA (setting [7]), 18%.
With `O=c1c(O)c(-c2ccc(O)cc2O)oc2cc(O)cc(O)c12` [morin, 2-(2,4-dihydroxyphenyl)-3,5,7-trihydroxychromen-4-one], the inhibition at 50 µM at human α-synuclein (setting [2]) is 88%; at human α-synuclein (setting [3]) it was above 60%; in assay [1] (setting [4]), 70%. The inhibition at 20 µM on E. coli CsgA (setting [6]) is above 60%; on E. coli CsgA (setting [7]), 69%.
On to `Cc1ccc(C(C)C)c(O)c1` [thymol, 5-methyl-2-(propan-2-yl)phenol], for which the inhibition at 50 µM on human α-synuclein (setting [8]) was -21%; on human α-synuclein (setting [9]), below -10%; in assay [1] (setting [4]), 9%; in assay [1] (setting [5]), -10 to 10%. Further, the “Effect on CsgA-seeded α-synuclein aggregation (in words)” value in assay [1] (compounds at 50 μM) was “little to no effect”. For the same compound, at E. coli CsgA (compounds at 20 μM), the “Effect on CsgA aggregation (in words)” value is reported as “little to no effect”. The inhibition at 20 µM on E. coli CsgA (setting [6]) was -10 to 10%; at E. coli CsgA (setting [7]), -4%.

Source of the values: patent US11147792B2, “Inhibitors of microbially induced amyloid” (Axial Therapeutics, Inc, priority 2017, dated 2021).
